Experimental data from US11395492B2, “Antimicrobial and agrochemical compositions” (Myco Sciences Limited, priority 2015, dated 2022).
Like-named read-outs stand apart in the source and are kept apart here.

Key:
[1] = system: spores of B. cinerea; assay: Sporicidal assay (1) with sodium nitrite, B. cinerea; type: cell-based, Botrytis cinerea; conditions: 30 min
[2] = system: Rhizoctonia solani; assay: Inhibition of fungal growth assay (radial growth on PDA); conditions: for IC50 (% of stock solution) on growth of R. solani: potato dextrose agar, 24 hour culture at 22° C.
Protocol: Inhibition of fungal growth assay. The Rhizoctonia solani (R. solani) strain was isolated from sclerotia on the skin of a potato and was maintained in culture on potato dextrose agar (PDA) at room temperature (22° C.). To assess the effects of the compositions on fungal growth, 10 microliters of the test compositions diluted in sterile distilled water was placed in the wells of a 12-well tissue culture plate and 1 milliliter of PDA was added by pipette to each well. The plate was agitated to distribute the test composition evenly throughout the agar (distilled water alone was used as control) and then the agar was allowed to set. Plugs of agar containing fungal hyphae (3×3 millimeters) from an established fungal culture were cut out using a scalpel and inserted into holes cut into the centre of the agar in each well of the 12-well plate, which was then cultured at room temperature. To assess the effects of compositions on radial fungal growth, the diameter of the fungal hyphae was measured twice at a 90° angle using a ruler and the average diameter in millimeters was calculated. Concentrations of compositions required to inhibit the radial growth of R. solani by 50% (IC50) were determined graphically.

[3] = system: spores of F. oxysporum; assay: Sporicidal assay (1) with sodium nitrite, F. oxysporum; type: cell-based, Fusarium oxysporum f. sp. cubense; conditions: 30 min
[4] = system: Magnaporthe oryzae; type: cell-based; conditions: for M. oryzae fungal growth (mm): 30 min exposure, 4 days culture
[5] = pH of diluted compositions and components; type: physicochemical
[6] = system: Rhizoctonia solani
Protocol: To assess the effects of composition on fungal growth, 10 microliters of the test compositions diluted in sterile distilled water were placed in the wells of a 12-well tissue culture plate and 1 milliliter of PDA was added by pipette to each well. The plate was agitated to distribute the test composition evenly throughout the agar (distilled water alone was used as control) and then the agar was allowed to set. Plugs of agar containing fungal hyphae (3×3 millimeters) from an established fungal culture were cut out using a scalpel and inserted into holes cut into the centre of the agar in each well of the 12-well plate, which was then cultured at room temperature (22° C.). To assess the effects of compositions on radial fungal growth, the diameter the fungal hyphae was measured twice at a 90° angle using a ruler and the average diameter in millimeters was calculated. If no fungal growth could be detected by eye, the cultures were observed by phase microscopy (40×) to confirm that there was no growth (NG) as judged by visual examination.
To assess the effects of compounds and compositions on sclerotia formation, the R. solani cultures were examined daily and radial fungal growth was measured until the cultures were confluent after which time the development of white (immature) sclerotia and mature (black pigmented) sclerotia was noted and the number of mature sclerotia was counted on day 10 of culture.

[7] = FIG. 3, 2 to 3 replicate experiments

O=S(=O)([O-])[O-].[Zn+2] [ZnSO4, zinc sulfate]
Fungal growth score, spores of B. cinerea ([1]; NaNO2 0 mM, test item 1%): 2 | Fungal growth score, spores of B. cinerea ([1]; NaNO2 1 mM, test item 1%): 2 | Fungal growth score, spores of B. cinerea ([1]; NaNO2 3 mM, test item 1%): 2 | Fungal growth score, spores of B. cinerea ([1]; NaNO2 10 mM, test item 1%): 2 | Fungal growth score, spores of B. cinerea ([1]; NaNO2 30 mM, test item 1%): 2 | Fungal growth score, spores of B. cinerea ([1]; NaNO2 100 mM, test item 1%): 1 | IC50 (% of stock solution) on growth of R. solani [2]: 0.33 % of stock solution

OP(O)O [Composition H3PO3, phosphorous acid]
Fungal growth score, spores of B. cinerea ([1]; NaNO2 0 mM, test item 0.1%): 2 | Fungal growth score, spores of B. cinerea ([1]; NaNO2 0 mM, test item 0.3%): 2 | Fungal growth score, spores of B. cinerea ([1]; NaNO2 0 mM, test item 1%): 2 | Fungal growth score, spores of B. cinerea ([1]; NaNO2 1 mM, test item 0.1%): 2 | Fungal growth score, spores of B. cinerea ([1]; NaNO2 1 mM, test item 0.3%): 2 | Fungal growth score, spores of B. cinerea ([1]; NaNO2 1 mM, test item 1%): 2 | Fungal growth score, spores of B. cinerea ([1]; NaNO2 3 mM, test item 0.1%): 2 | Fungal growth score, spores of B. cinerea ([1]; NaNO2 3 mM, test item 0.3%): 2 | Fungal growth score, spores of B. cinerea ([1]; NaNO2 3 mM, test item 1%): 1 | Fungal growth score, spores of B. cinerea ([1]; NaNO2 10 mM, test item 0.1%): 2 | Fungal growth score, spores of B. cinerea ([1]; NaNO2 10 mM, test item 0.3%): 2 | Fungal growth score, spores of B. cinerea ([1]; NaNO2 10 mM, test item 1%): 0 | Fungal growth score, spores of B. cinerea ([1]; NaNO2 30 mM, test item 0.1%): 2 | Fungal growth score, spores of B. cinerea ([1]; NaNO2 30 mM, test item 0.3%): 2 | Fungal growth score, spores of B. cinerea ([1]; NaNO2 30 mM, test item 1%): 0 | Fungal growth score, spores of B. cinerea ([1]; NaNO2 100 mM, test item 0.1%): 2 | Fungal growth score, spores of B. cinerea ([1]; NaNO2 100 mM, test item 0.3%): 1 | Fungal growth score, spores of B. cinerea ([1]; NaNO2 100 mM, test item 1%): 0 | Fungal growth score, spores of F. oxysporum ([3]; NaNO2 0 mM, test item 0.3%): 2 | Fungal growth score, spores of F. oxysporum ([3]; NaNO2 1 mM, test item 0.03%): 2 | Fungal growth score, spores of F. oxysporum ([3]; NaNO2 1 mM, test item 0.1%): 2 | Fungal growth score, spores of F. oxysporum ([3]; NaNO2 1 mM, test item 0.3%): 2 | Fungal growth score, spores of F. oxysporum ([3]; NaNO2 3 mM, test item 0.03%): 2 | Fungal growth score, spores of F. oxysporum ([3]; NaNO2 3 mM, test item 0.1%): 2 | Fungal growth score, spores of F. oxysporum ([3]; NaNO2 3 mM, test item 0.3%): 1 | Fungal growth score, spores of F. oxysporum ([3]; NaNO2 10 mM, test item 0.03%): 2 | Fungal growth score, spores of F. oxysporum ([3]; NaNO2 10 mM, test item 0.1%): 2 | Fungal growth score, spores of F. oxysporum ([3]; NaNO2 10 mM, test item 0.3%): 0 | Fungal growth score, spores of F. oxysporum ([3]; NaNO2 30 mM, test item 0.03%): 2 | Fungal growth score, spores of F. oxysporum ([3]; NaNO2 30 mM, test item 0.1%): 1 | Fungal growth score, spores of F. oxysporum ([3]; NaNO2 30 mM, test item 0.3%): 0 | IC50 values with R. solani (fungal growth) [2]: around 250 mg/L | IC50 (% of stock solution) on growth of R. solani [2]: 0.64^+ % of stock solution | IC50 (% of stock solution) on growth of R. solani ([2]; listed as phosphorous acid): 0.64 % of stock solution | M. oryzae fungal growth (mm) ([4]; NaNO2 0 mM, composition 1%): 21 mm | M. oryzae fungal growth (mm) ([4]; NaNO2 10 mM, composition 0.1%): 20 mm | percent of control (A, B, M) used to calculate Sf ([4]; NaNO2 10 mM, composition 0.3%): 38% | M. oryzae fungal growth (mm) ([4]; NaNO2 10 mM, composition 0.3%): 13 mm | percent of control (A, B, M) used to calculate Sf ([4]; NaNO2 10 mM, composition 1%): 48% | M. oryzae fungal growth (mm) ([4]; NaNO2 10 mM, composition 1%): 11 mm | fungicidal activity to M. oryzae ([4]; absence of sodium nitrite, 1% of stock solution): not fungicidal | pH of a 1% solution in DW ([5]; 1% in distilled water): 2.12 | pH: 1% in DW + 100 mM NaNO2 ([5]; 1% in distilled water with 100 mM sodium nitrite): 4.22 | Day 1 growth in mm ([6]; 10 mg/L (Table 9)): 18 mm | Day black SCL 1st seen ([6]; 10 mg/L (Table 9)): 5 | Day growth confluent ([6]; 10 mg/L (Table 9)): 2 | Day white SCL 1st seen ([6]; 10 mg/L (Table 9)): 3 | No. black SCL on day 10 ([6]; 10 mg/L (Table 9)): 17 | Day 1 growth in mm ([6]; 12 mg/L (Table 11)): 20 mm | Day black SCL 1st seen ([6]; 12 mg/L (Table 11)): 6 | Day growth confluent ([6]; 12 mg/L (Table 11)): 2 | Day white SCL 1st seen ([6]; 12 mg/L (Table 11)): 3 | No. black SCL on day 10 ([6]; 12 mg/L (Table 11)): >20 | Day 1 growth in mm ([6]; 12 mg/L, adjusted to equal amounts of PO3 group (Table 10)): 18 mm | Day black SCL 1st seen ([6]; 12 mg/L, equal PO3 (Table 10)): 6 | Day growth confluent ([6]; 12 mg/L, equal PO3 (Table 10)): 2 | Day white SCL 1st seen ([6]; 12 mg/L, equal PO3 (Table 10)): 3 | No. black SCL on day 10 ([6]; 12 mg/L, equal PO3 (Table 10)): >20 | Day 1 growth in mm ([6]; 20 mg/L (Table 9)): 18 mm | Day growth confluent ([6]; 20 mg/L (Table 9)): 2 | Day white SCL 1st seen ([6]; 20 mg/L (Table 9)): 4 | No. black SCL on day 10 ([6]; 20 mg/L (Table 9)): 0 | Day 1 growth in mm ([6]; 40 mg/L (Table 9)): 16 mm | Day growth confluent ([6]; 40 mg/L (Table 9)): 2 | No. black SCL on day 10 ([6]; 40 mg/L (Table 9)): 0 | Day 1 growth in mm ([6]; 40 mg/L (Table 11)): 19 mm | Day growth confluent ([6]; 40 mg/L (Table 11)): 2 | No. black SCL on day 10 ([6]; 40 mg/L (Table 11)): 0 | Day 1 growth in mm ([6]; 40 mg/L, adjusted to equal amounts of PO3 group (Table 10)): 16 mm | Day growth confluent ([6]; 40 mg/L, equal PO3 (Table 10)): 2 | No. black SCL on day 10 ([6]; 40 mg/L, equal PO3 (Table 10)): 0 | Day 1 growth in mm ([6]; 80 mg/L (Table 9)): 14 mm | Day growth confluent ([6]; 80 mg/L (Table 9)): 3 | No. black SCL on day 10 ([6]; 80 mg/L (Table 9)): 0 | Day 1 growth in mm ([6]; 120 mg/L (Table 11)): 14 mm | Day growth confluent ([6]; 120 mg/L (Table 11)): 3 | No. black SCL on day 10 ([6]; 120 mg/L (Table 11)): 0 | Day 1 growth in mm ([6]; 120 mg/L, adjusted to equal amounts of PO3 group (Table 10)): 10 mm | Day growth confluent ([6]; 120 mg/L, equal PO3 (Table 10)): 4 | No. black SCL on day 10 ([6]; 120 mg/L, equal PO3 (Table 10)): 0 | Day 1 growth in mm ([6]; 160 mg/L (Table 9)): 11 mm | Day growth confluent ([6]; 160 mg/L (Table 9)): 3 | No. black SCL on day 10 ([6]; 160 mg/L (Table 9)): 0 | Day 1 growth in mm ([6]; 400 mg/L (Table 11)): 6 mm | No. black SCL on day 10 ([6]; 400 mg/L (Table 11)): 0 | Day 1 growth in mm ([6]; 400 mg/L, adjusted to equal amounts of PO3 group (Table 10)): 5 mm | No. black SCL on day 10 ([6]; 400 mg/L, equal PO3 (Table 10)): 0 | times more active than AMPA at inhibiting black sclerotia formation [6, 7]: around 30 times | times more active than glyphosate at inhibiting black sclerotia formation [6, 7]: around 20 times

O.O.O.O.O.O=S(=O)([O-])[O-].[Cu+2] [CuSO4, copper sulfate pentahydrate]
Fungal growth score, spores of B. cinerea ([1]; NaNO2 0 mM, test item 1%): 2 | Fungal growth score, spores of B. cinerea ([1]; NaNO2 1 mM, test item 1%): 2 | Fungal growth score, spores of B. cinerea ([1]; NaNO2 3 mM, test item 1%): 2 | Fungal growth score, spores of B. cinerea ([1]; NaNO2 10 mM, test item 1%): 2 | Fungal growth score, spores of B. cinerea ([1]; NaNO2 30 mM, test item 1%): 2 | Fungal growth score, spores of B. cinerea ([1]; NaNO2 100 mM, test item 1%): 0 | Fungal growth score, spores of F. oxysporum ([3]; NaNO2 0 mM, test item 1%): 2 | Fungal growth score, spores of F. oxysporum ([3]; NaNO2 1 mM, test item 1%): 2 | Fungal growth score, spores of F. oxysporum ([3]; NaNO2 3 mM, test item 1%): 2 | Fungal growth score, spores of F. oxysporum ([3]; NaNO2 10 mM, test item 1%): 2 | Fungal growth score, spores of F. oxysporum ([3]; NaNO2 30 mM, test item 1%): 2 | IC50 (% of stock solution) on growth of R. solani [2]: 0.39 % of stock solution
